Like-named read-outs stand apart in the source and are kept apart here.
Experiments:
[1] = system: female adult stegomyia mosquitoes (Aedes albopictus); assay: Comparative debugging efficaciousness tests: bloodsucking prevention on rats, liquid type electric mosquito repellent utensil; assay type: in vivo; details: for efficacy of preventing mosquitoes from bloodsucking rats compared with transfluthrin: comparison in words; for Potency Ratio (Etoc 100), of IC50 Value / Potency Ratio (Etoc 100), of IC90 Value: relative to d,d-T80-prallethrin (Etoc) = 100
Description: First, debugging efficaciousness tests were performed. For the criterion of judgment to compare degrees of efficaciousness, the effect of bloodsucking by mosquitoes of rats was adopted. Based on this, the following efficaciousness tests were carried out.
Comparative Debugging Efficaciousness Tests
Sample chemicals that were used were as follows: d,d-T80-prallethrin, transfluthrin, d1,d-T80-allethrin, d-T80-furamethrin, terallethrin and empenthrin; and pyrethroid technical products (sample chemicals) A, B, C, D, E, F, G and H.
Sample insects that were used were as follows: female adult stegomyia mosquitoes (Aedes albopictus) of Fumakilla (spelled phonetically) series 6th to 9th after emergence.
Sample chemical volatilizing form: A liquid type electric mosquito repellent utensil, a liquid agent (referred to below as “sample liquid”), obtained by diluting each of the sample chemicals with a solvent in a varying concentration, was allowed to volatilize.
Method used for tests: A test was conducted in two 8 straw mat (13.2 m^2) rooms, one as a treatment zone and the other as a non-treatment zone, both in a no-wind state and at a constant room temperature of 32° C.
In the treatment zone, three cages each with a rat confined therein were placed equidistantly spaced apart (about 20 cm) in the center of the test room. The mosquito repellent utensil placed on the floor surface of the center of the test room was preliminarily electrically energized for operation, and to thermally volatilize each of the sample liquids and fumigate the room therewith for a period of 30 minutes, and then about 100 (one hundred) of sample mosquitoes were released into the test room. After two hours following the release of the mosquitoes, all these sample mosquitoes were knocked-down by using a mosquito repellent mat, and the number of the mosquitoes which had bloodsucking was counted to find the proportion of bloodsucking.
In the non-treatment zone, also, after the 2 hours of bloodsucking, the proportion of bloodsucking was found.
A rate of bloodsucking prevention was derived from the proportions of bloodsucking in the treatment and non-treatment rooms as expressed by the following equation:
Rate of bloodsucking prevention =[(Total bloodsucking proportion in the non-treatment zone−Total bloodsucking proportion in the treatment zone)÷Total bloodsucking proportion in the non-treatment zone]×100
Also, on the basis of these amounts of volatilization and rates of bloodsucking prevention, an amount of volatilization at a 50% rate of bloodsucking prevention (IC50 value) and an amount of volatilization at a 90% rate of bloodsucking prevention (IC90 value) are found and shown in Table 1 below.

[2] = Comparative vapor pressure tests by gas chromatography; assay type: physicochemical
Description: 2. Comparative Vapor Pressure Tests
Next, by using gas chromatography, the various chemicals including sample chemicals A, B and C screened out by the foregoing comparative debugging efficaciousness tests were compared with d,d-T80-prallethrin (Etoc) as regards to their vapor pressures.
The gas chromatography test included as its temperature conditions an initial temperature of 60° C., and a temperature rise of 5° C. per minute up to a maximum temperature of 250° C., which was held for a period of 5 minutes, whereupon the process ended.
The filler used was made up of methyl silicon polymer, which is non-polar.
It should also be noted that as an internal standard substance use was made of sebacic acid-n-butyl and which was added to confirm that there was no deviation in retention time from one test to another.
Retention times for the various chemicals are listed in Table 2 in the order of shorter to longer.

[3] = system: female adult common house mosquitoes (Culex pipiens pallens); assay: Example 1: spontaneous volatilization efficaciousness test in 33 m^3 room (knockdown, KT50); assay type: in vivo; details: for potency and retention of potency compared with transfluthrin: comparison in words
Source text: Using sample chemicals A, B and C screened out by the preliminary tests, the efficaciousness of each of them when allowed to volatilize spontaneously was compared with that of transfluthrin when allowed to volatilize spontaneously.
Sample Preparations (Chemicals and Their Carriers According to the Present Invention):
(§1) A non-woven polypropylene fabric (made by Idemitsu Petroleum Chemicals Co., Ltd., product name RW2100, density 100 grams/m^2) of 50 cm×40 cm was coated with a hexane solution of 100 milliliter containing 1% (W/V) sample chemicals A, B, C and left to dry for 24 hours (effective amount of chemical: 1000 milligrams).
Comparative Preparation (Chemical and its Carrier):
as §1, with “of transfluthrin” for “sample chemicals A, B, C”
Testing Method: Efficaciousness Tests in an 8 Straw Mat room with a volume of 33 m^3
In the center of the test room with a volume of 33 m^3 (3.65 m×3.65 m×2.5 m high), each chemical carrier as prepared as above was placed as hung on a hook suspended in the center of the room to let the corresponding chemical volatilize spontaneously for a period of 3 hours. Thereafter, a triangular net casing (20 cm×20 cm×16.4 cm high) of 16 mesh nylon net containing 10 (ten) female adult common house mosquitoes (Culex pipiens pallens) was placed as hung in an area at each of the four corners (spaced from the wall surfaces at a distance of 90 cm) at a height of 150 cm from the room floor and was exposed to the chemical atmosphere.
A test was also conducted likewise for the comparative carrier.
After the tests ended, the samples chemicals were let to volatilize spontaneously in the room having a constant temperature of 30° C. The same test was repeated at given intervals and efficaciousness was then examined each time.

[4] = 13.2 m^2 room, 32° C., 30 min pre-fumigation, 2 hours after release, rats
[5] = 60° C. initial, 5° C. per minute up to 250° C., non-polar methyl silicon polymer filler

SMILES	efficacy of preventing mosquitoes from bloodsucking rats compared with transfluthrin [1]	Potency Ratio (Etoc 100), of IC50 Value [1]	Potency Ratio (Etoc 100), of IC90 Value [1]	potency and retention of potency compared with transfluthrin [3]	KT50 ([3]; elapsed time 0 hr) [min]	KT50 ([3]; elapsed time 168 hr) [min]	KT50 ([3]; elapsed time 336 hr) [min]	KT50 ([3]; elapsed time 504 hr) [min]	KT50 ([3]; elapsed time 672 hr) [min]	KT50 ([3]; elapsed time 864 hr) [min]	KT50 ([3]; elapsed time 1056 hr) [min]	KT50 ([3]; elapsed time 1200 hr) [min]	KT50 ([3]; elapsed time 1344 hr) [min]	KT50 ([3]; elapsed time 1536 hr) [min]	KT50 ([3]; elapsed time 1680 hr) [min]	KT50 ([3]; elapsed time 1848 hr) [min]	KT50 ([3]; elapsed time 2016 hr) [min]	KT50 ([3]; elapsed time 2208 hr) [min]	Retention Time (gas chromatography, as comparison of vapor pressure) [2, 5] [min]	other results
C#CC(OC(=O)C1C(C=C(Cl)Cl)C1(C)C)C(F)=CCC (centres unmarked) [Sample Chemical B, 1-ethnyl-2-fluoro-2-pentenyl 3-(2,2-dichlorovinyl)-2,2-dimethylcyclopropanecarboxylate]	more efficacious than transfluthrin	172.3	469.9	higher in potency and also longer in retention time than transfluthrin	8.64	7.53	7.77	7.48	6.45	7.90	8.00	8.00	8.40	8.60	9.60	10.40	9.87	11.70		IC50 Value (amount of volatilization at a 50% rate of bloodsucking prevention) [1, 4]: 0.0047 mg/h; IC90 Value (amount of volatilization at a 90% rate of bloodsucking prevention) [1, 4]: 0.0083 mg/h; Retention Time (gas chromatography, as comparison of vapor pressure) [2]: 26.4 min; vapor pressure compared with transfluthrin and d,d-T80-prallethrin [2]: lower than transfluthrin, but higher than d,d-T80-prallethrin; KT50 ([3]; elapsed time 2352 hr): 10.80 min; KT50 ([3]; elapsed time 2520 hr): 12.00 min; KT50 ([3]; elapsed time 2688 hr): 12.70 min; KT50 ([3]; elapsed time 2856 hr): 13.50 min; KT50 ([3]; elapsed time 3024 hr): 14.90 min; KT50 ([3]; elapsed time 3192 hr): 18.60 min; KT50 ([3]; elapsed time 3360 hr): 20.70 min; KT50 ([3]; elapsed time 3528 hr): 22.90 min; KT50 ([3]; elapsed time 3696 hr): 26.80 min; KT50 ([3]; elapsed time 3864 hr): 28.00 min; KT50 ([3]; elapsed time 4032 hr): 25.60 min; KT50 ([3]; elapsed time 4200 hr): 32.70 min
Cc1c(F)c(F)c(COC(=O)C2C(C=C(F)Cl)C2(C)C)c(F)c1F (centres unmarked) [Sample Chemical C, 2,3,5,6-tetrafluoro-4-methylbenzyl 3-(2-chloro-2-fluorovinyl)-2,2-dimethylcyclopropanecarboxylate]	more efficacious than transfluthrin	130.6	348.2	higher in potency and also longer in retention time than transfluthrin	5.53	7.53	7.55	6.95	7.98	12.60	10.70	11.50	12.60	15.90	20.70	25.90	27.80	30.60	24.5	vapor pressure compared with transfluthrin and d,d-T80-prallethrin ([2]; from GC retention times): lower than transfluthrin, but higher than d,d-T80-prallethrin
CC1(C)[C@H](C=C(Cl)Cl)[C@H]1C(=O)OCc1c(F)c(F)cc(F)c1F [Transfluthrin, reference compound]		19.0	29.2		11.10	8.73	9.17	13.40	12.10	17.20	15.60	20.40	18.80	28.10	30.40				23.6	
